Test results as given in patent publication EP0527427A2, “Catalysts and casting article, method, and composition” (MINNESOTA MINING AND MANUFACTURING COMPANY, priority 1991, dated 1993).

Assays:
[1] = pKa by potentiometric backtitration (compounds of Formula II, Table IX); format: physicochemical; details: half-neutralization point taken as pKa; backtitration with 0.01N sodium hydroxide
Protocol: Several of the compounds of the invention were characterized by their titration curves (i.e., their pKa values) as follows: To a 0.1 g sample of a compound of the invention was added with stirring 60 mL of distilled water, then 10 mL of 0.1N hydrochloric acid was added. The solution was stirred for 10 minutes. The pH of the solution was then measured potentiometrically using a Metrohm Model 670 TITROPROCESSOR™ potentiometer (Brinkman Instruments Inc., Westbury, NY) while backtitrating with 0.01N sodium hydroxide solution. The endpoints and half-neutralization points were determined by the instrument, and for the purposes of this determination the half-neutralization point is taken as the pKa.

[2] = Khim.-Farm.Zh. 1983, 17, 916; cited from earlier work
[3] = Farm.Zh. (Kiev) 1990, 1, 38; cited from earlier work
[4] = pKa by potentiometric backtitration (catalysts, Table I); format: physicochemical; details: half-neutralization point taken as pKa; backtitration with 0.1N sodium hydroxide
Protocol: The solution was stirred for 10 minutes, then backtitrated with 0.1N sodium hydroxide solution. The pH during backtitration was measured potentiometrically using a Metrohm Model 670 TITROPROCESSOR™ potentiometer (Brinkman Instruments Inc., Westbury, NY). The endpoint and half-neutralization point were determined by the instrument, and for the purposes of this determination the half-neutralization point is taken as the pKa.

**Q.** For CN1CCCCC1COC(=O)CN1CCCC1 (stereo not shown) [2-(1-Methylpiperidyl)methyl 1-Pyrrolidineacetate], which “Measured pKa first” value [1] is on record?
**A.** The value was 9.15.

**Q.** And the “Measured pKa second” value [1]?
**A.** Its value is 7.03.

**Q.** Which “Measured pKa first” value [1] does the source give for O=C(CN1CCCC1)OCCN1CCCC1 [2-(1-Pyrrolidinyl)ethyl 1-Pyrrolidineacetate] here?
**A.** The value was 9.26.

**Q.** And the “Measured pKa second” value [1]?
**A.** Its value is 7.12.

**Q.** Which “Measured pKa first” value [1] does the source give for O=C(CN1CCCC1)OCCN1CCCCC1 [2-(1-piperidino)ethyl 1-pyrrolidineacetate] here?
**A.** Its value is 8.97.

**Q.** What about the “Measured pKa second” value [1] of the same compound?
**A.** The value was 6.72.

**Q.** What does the source list for CCN(CC)CCOC(=O)CN(C)C [2-(Diethylamino)ethyl dimethylaminoacetate]?
**A.** analgesic activity [2]: analgesic activity; inotropic activity [3]: significant inotropic activity

**Q.** What does the source list for CN(C)CCOC(=O)CN(C)C [(CH3)2NCH2C(O)OCH2CH2N(CH3)2, 2-(N,N-Dimethylamino)ethyl N,N-Dimethylaminoacetate]?
**A.** Measured pKa first [4]: 8.53; Measured pKa second [4]: 6.49
